Experiments:
Adenosine receptor A1 = molecular target: T1, Adenosine receptor A1 (Rattus norvegicus, UniProt P25099); test: Inhibition of binding towards adenosine A1 receptor using [3H]N-cyclohexyladenosine ([3H]CHA) in rat whole brain membranes.; type: cell membranes
T1 sequence (P25099 whole entry): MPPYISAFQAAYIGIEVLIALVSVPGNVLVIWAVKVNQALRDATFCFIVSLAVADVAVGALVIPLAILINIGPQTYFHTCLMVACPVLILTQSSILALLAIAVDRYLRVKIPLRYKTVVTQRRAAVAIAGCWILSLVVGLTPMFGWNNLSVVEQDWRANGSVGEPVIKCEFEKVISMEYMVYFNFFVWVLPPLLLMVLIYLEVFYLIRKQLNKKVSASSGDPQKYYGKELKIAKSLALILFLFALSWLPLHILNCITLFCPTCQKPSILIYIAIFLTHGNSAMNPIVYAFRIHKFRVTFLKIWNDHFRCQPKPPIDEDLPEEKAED

Cavia porcellus [1] = species on record: Cavia porcellus; test: Inhibition of 2-chloroadenosine-induced relaxation in histamine-contracted guinea pig trachea; type: functional, organism-based
Cavia porcellus [2] = species on record: Cavia porcellus; test: In vitro inhibition of adenylate cyclase activity of synaptoneurosomes from guinea pig cerebral cortex; type: functional
[3] = (§1) Ratio of Ki at A2 to Ki at A1 receptors
Adenosine A2 receptor = Adenosine A2 receptor (Rattus norvegicus, UniProt P29276+P30543)
Description: Inhibition of binding to Adenosine-2 receptor using [3H]NECA in rat striatum

[4] = molecular target: T2, Adenosine receptor A1 (Rattus norvegicus) (UniProt P25099); test: as §1
T2 sequence (whole entry): T1 sequence (P25099 whole entry)

| IC50 (Adenosine receptor A1) [nM] | IC50 (Cavia porcellus [1]) [nM] | IC50 (Adenosine A2 receptor) [nM] | Ratio [4] | SMILES | IC50 (Cavia porcellus [2]) [nM] | Ratio [3] |
| --- | --- | --- | --- | --- | --- | --- |
| 21 | > 1000 | 56 | 2.7 | OCCNc1nc2ccc(Cl)cc2c2nc(-c3ccco3)nn12 |  |  |
| 22 | > 1000 | 179 | 8.2 | CC(C)Nc1nc2ccc(Cl)cc2c2nc(-c3ccco3)nn12 | 400 |  |
| > 10000 | > 1000 | > 10000 |  | CN(C)c1nc2ccc(Cl)cc2c2nc(-c3ccco3)nn12 | > 1000 |  |
| 89 | > 1000 | 61 | 0.69 | CNc1nc2ccc(Cl)cc2c2nc(-c3ccco3)nn12 |  |  |
| 1570 | > 1000 | 531 | 0.34 | Nc1nc2ccc(Cl)cc2c2nc(-c3ccc(Br)o3)nn12 |  |  |
| 31 | > 10000 | 19 | 0.61 | COc1ccc2nc(N)n3nc(-c4ccco4)nc3c2c1 |  |  |
| 10000 | > 1000 | > 10000 |  | Oc1nc2ccc(Cl)cc2c2nc(-c3ccco3)nn12 |  |  |
| 9.5 | 1000 | 5.5 | 0.58 | Nc1nc2ccc(O)cc2c2nc(-c3ccco3)nn12 |  |  |
| > 10000 | > 1000 | > 10000 |  | CC(C)(C)Nc1nc2ccc(Cl)cc2c2nc(-c3ccco3)nn12 |  |  |
| 145 | > 10000 | 1290 | 8.9 | Nc1nc2ccc(OCc3ccccc3)cc2c2nc(-c3ccco3)nn12 |  |  |
| 38 | 100 | 27 | 0.71 | Nc1nc2ccccc2c2nc(-c3ccco3)nn12 | 40 |  |

Further lines, the compound ahead of its results:

| SMILES | IC50 (Adenosine receptor A1) [nM] | IC50 (Cavia porcellus [1]) [nM] | IC50 (Adenosine A2 receptor) [nM] | Ratio [4] | IC50 (Cavia porcellus [2]) [nM] | Ratio [3] |
| --- | --- | --- | --- | --- | --- | --- |
| CS(=O)(=O)O.Nc1nc2ccc(Cl)cc2c2nc(-c3ccoc3)nn12 | 295 | > 1000 | 145 |  | 79 | 0.49 |
| CS(=O)(=O)O.Nc1nc2ccc(Cl)cc2c2nc(-c3ccc[nH]3)nn12 | 610 | > 1000 | 1205 | 2 |  |  |
| CCC(C)Nc1nc2ccc(Cl)cc2c2nc(-c3ccco3)nn12.CS(=O)(=O)O (stereo unspecified) | 61 | > 1000 | 158 | 2.6 |  |  |
| CS(=O)(=O)O.Nc1nc2ccc(Cl)cc2c2nc(-c3ccco3)nn12 |  | 3 | 3.3 |  |  |  |
| Cn1c(=O)c2nc[nH]c2n(C)c1=O [THEOPHYLLINE] |  | 3000 |  |  | 10000 |  |
| Nc1nc2ccc(Cl)cc2c2nc(C3CCCO3)nn12 (stereo unspecified) | 827 | > 1000 | 1580 | 1.9 | 480 |  |
| CS(=O)(=O)O.Cn1c(=N)n2nc(-c3ccco3)nc2c2ccccc21 | 1220 | > 1000 | 2914 | 2.4 | 1480 |  |
| CS(=O)(=O)O.Nc1nc2ccc(Cl)cc2c2nc(-c3cccs3)nn12 | 324 | > 1000 | 116 | 0.36 | 200 |  |

Source: ChEMBL document CHEMBL1124100, “Structure-activity profile of a series of novel triazoloquinazoline adenosine antagonists” (J Med Chem, 1988)
